Assay results from patent US11040035B2, “3-oxo-2,6-diphenyl-2,3-dihydropyridazine-4-carboxamides” (BAYER PHARMA AKTIENGESELLSCHAFT, priority 2016, dated 2021).

Experiments:
AHR [1] = target: T1, AHR (Homo sapiens, UniProt P35869); assay: In vitro assay 2: agonism in human cell line (transactivation assay); conditions: Assay 2: AHR-luc Hum Agonism IC50 [M], no kynurenic acid, 20 hours, firefly luciferase
T1 sequence (P35869 11-848): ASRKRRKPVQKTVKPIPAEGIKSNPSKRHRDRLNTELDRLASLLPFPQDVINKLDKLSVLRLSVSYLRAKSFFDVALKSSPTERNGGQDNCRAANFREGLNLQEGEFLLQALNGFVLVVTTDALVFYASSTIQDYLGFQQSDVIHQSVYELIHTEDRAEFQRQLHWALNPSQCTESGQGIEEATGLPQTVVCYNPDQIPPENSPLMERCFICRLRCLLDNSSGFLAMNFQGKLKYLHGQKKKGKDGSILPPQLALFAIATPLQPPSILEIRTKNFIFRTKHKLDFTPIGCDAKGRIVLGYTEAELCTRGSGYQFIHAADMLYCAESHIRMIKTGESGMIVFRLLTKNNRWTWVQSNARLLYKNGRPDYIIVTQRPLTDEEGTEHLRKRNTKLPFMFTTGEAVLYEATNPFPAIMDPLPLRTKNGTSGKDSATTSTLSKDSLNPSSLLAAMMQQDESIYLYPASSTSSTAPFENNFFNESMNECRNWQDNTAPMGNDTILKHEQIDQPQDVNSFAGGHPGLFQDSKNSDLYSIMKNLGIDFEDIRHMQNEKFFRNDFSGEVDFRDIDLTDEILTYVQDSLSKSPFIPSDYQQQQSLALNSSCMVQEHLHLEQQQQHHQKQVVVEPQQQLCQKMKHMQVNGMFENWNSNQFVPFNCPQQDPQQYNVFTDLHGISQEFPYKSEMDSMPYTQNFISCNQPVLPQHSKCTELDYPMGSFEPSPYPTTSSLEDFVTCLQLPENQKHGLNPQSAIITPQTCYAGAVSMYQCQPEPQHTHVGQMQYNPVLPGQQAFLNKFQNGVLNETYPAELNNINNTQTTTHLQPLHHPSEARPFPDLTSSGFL

AHR [2] = target: T1, AHR; assay: In vitro assay 1: antagonism in human cell line (transactivation assay, kynurenic acid prestimulated); conditions: Assay 1: AHR-luc Hum Antagonism IC50 [M], 150 μM kynurenic acid, 20 hours, firefly luciferase
Method: Transactivation assays were carried out in U87 glioblastoma cells (ATCC) endogenously expressing AHR. In addition the cells were stably transfected with an AHR inducible firefly luciferase reporter gene construct that carried AHR-binding sites (DRE) in its promoter and a renilla reporter gene construct with constitutively active promoter. Kynurenic acid is an endogenous AHR activating ligand and was used to prestimulate test cells prior to testing the antagonistic properties of compounds.
In Vitro Assay 1: Antagonism in Human Cell Line
Cells in medium (tryptophan free RPMI, 1% FCS, 2 mM Glutamine) supplemented with 150 μM kynurenic acid were grown for 20 hours in absence (negative control) or presence of increasing concentrations of test compounds (typical dilutions: 72 pmol/L, 0.25 nmol/L, 0.89 nmol/L; 3.1 nmol/L, 11 nmol/L, 38 nmol/L, 130 nmol/L, 470 nmol/L, 1.6 μmol/L, 5.7 μmol/L and 20 μmol/L in duplicates). As positive inhibition control cells supplemented with 150 μM kynurenic acid were incubated in presence of 5 μM Staurosporin. Normalization was done by positive and negative controls.
Firefly luciferase and Renilla activity was determined by the DualGlo Luciferase Assay System (Promega, #2920).

## CC(C)[C@@H](CO)NC(=O)c1cc(-c2ccc(Cl)c(F)c2)nn(-c2cccc(F)c2)c1=O [Example 285, 6-(4-Chloro-3-fluorophenyl)-2-(3-fluorophenyl)-N-[(2S)-1-hydroxy-3-methylbutan-2-yl]-3-oxo-2,3-dihydropyridazine-4-carboxamide]
AHR [1]
  IC50: > 2e-05 M
AHR [2]
  IC50: 9.39e-08 M

## C[C@@H](CO)NC(=O)c1cc(-c2ccc(Cl)c(F)c2)nn(-c2cccc(F)c2)c1=O [Example 286, 6-(4-Chloro-3-fluorophenyl)-2-(3-fluorophenyl)-N-[(2S)-1-hydroxypropan-2-yl]-3-oxo-2,3-dihydropyridazine-4-carboxamide]
AHR [1]
  IC50: > 2e-05 M
AHR [2]
  IC50: 2.77e-07 M

## O=C(NC(CO)C1CCOC1)c1cc(-c2ccc(Cl)c(F)c2)nn(-c2cccc(F)c2)c1=O (centres unmarked) [Example 287, 6-(4-Chloro-3-fluorophenyl)-2-(3-fluorophenyl)-N-[2-hydroxy-1-[-tetrahydrofuran-3-yl]ethyl]-3-oxo-2,3-dihydropyridazine-4-carboxamide]
AHR [1]
  IC50: > 2e-05 M
AHR [2]
  IC50: 1.29e-07 M

## CC(O)C(C)NC(=O)c1cc(-c2ccc(Cl)c(F)c2)nn(-c2cccc(F)c2)c1=O (centres unmarked) [Example 289, 6-(4-Chloro-3-fluorophenyl)-2-(3-fluorophenyl)-N-(3-hydroxybutan-2-yl)-3-oxo-2,3-dihydropyridazine-4-carboxamide]
AHR [1]
  IC50: > 2e-05 M
AHR [2]
  IC50: 1.44e-07 M

## COc1ccc(-c2cc(C(=O)N[C@@H](C)CO)c(=O)n(-c3cccc(F)c3)n2)cc1 [Example 297, 2-(3-Fluorophenyl)-N-[(2S)-1-hydroxypropan-2-yl]-6-(4-methoxyphenyl)-3-oxo-2,3-dihydropyridazine-4-carboxamide]
AHR [1]
  IC50: > 2e-05 M
AHR [2]
  IC50: 8.72e-08 M

## CC[C@@H](CO)NC(=O)c1cc(-c2ccc(OC)cc2)nn(-c2cccc(F)c2)c1=O [Example 298, 2-(3-Fluorophenyl)-N-[(2S)-1-hydroxybutan-2-yl]-6-(4-methoxyphenyl)-3-oxo-2,3-dihydropyridazine-4-carboxamide]
AHR [1]
  IC50: > 2e-05 M
AHR [2]
  IC50: 3.18e-08 M

## O=C(NCC(O)C(F)(F)F)c1cc(-c2ccc(Cl)c(Cl)c2)nn(-c2cccc(F)c2)c1=O (centres unmarked) [Example 302, 6-(3,4-Dichlorophenyl)-2-(3-fluorophenyl)-3-oxo-N-(3,3,3-trifluoro-2-hydroxypropyl)-2,3-dihydropyridazine-4-carboxamide]
AHR [1]
  IC50: > 2e-05 M
AHR [2]
  IC50: 2.29e-07 M

## COCC(O)CNC(=O)c1cc(-c2ccc(Cl)c(Cl)c2)nn(-c2cccc(F)c2)c1=O (centres unmarked) [Example 303, 6-(3,4-Dichlorophenyl)-2-(3-fluorophenyl)-N-(2-hydroxy-3-methoxypropyl)-3-oxo-2,3-dihydropyridazine-4-carboxamide]
AHR [1]
  IC50: > 2e-05 M
AHR [2]
  IC50: 8.73e-07 M

## CC(O)C(C)NC(=O)c1cc(-c2ccc(Cl)c(Cl)c2)nn(-c2cccc(F)c2)c1=O (centres unmarked) [Example 304, 6-(3,4-Dichlorophenyl)-2-(3-fluorophenyl)-N-(3-hydroxybutan-2-yl)-3-oxo-2,3-dihydropyridazine-4-carboxamide]
AHR [1]
  IC50: > 2e-05 M
AHR [2]
  IC50: 2.75e-07 M

## O=C(NC(CO)C1CCOC1)c1cc(-c2ccc(Cl)c(Cl)c2)nn(-c2cccc(F)c2)c1=O (centres unmarked) [Example 307, 6-(3,4-Dichlorophenyl)-2-(3-fluorophenyl)-N-[2-hydroxy-1-(tetrahydrofuran-3-yl)ethyl]-3-oxo-2,3-dihydropyridazine-4-carboxamide]
AHR [1]
  IC50: > 2e-05 M
AHR [2]
  IC50: 2.22e-07 M

## C[C@@H](CO)NC(=O)c1cc(-c2ccc(Cl)cc2)nn(-c2cc(Cl)cc(Cl)c2)c1=O [Example 309, 6-(4-Chlorophenyl)-2-(3,5-dichlorophenyl)-N-[(2S)-1-hydroxypropan-2-yl]-3-oxo-2,3-dihydropyridazine-4-carboxamide]
AHR [1]
  IC50: > 2e-05 M
AHR [2]
  IC50: 9.87e-07 M

## O=C(NC(CO)C1CCOC1)c1cc(-c2ccc(Cl)cc2)nn(-c2cc(Cl)cc(Cl)c2)c1=O (centres unmarked) [Example 310, 6-(4-Chlorophenyl)-2-(3,5-dichlorophenyl)-N-[2-hydroxy-1-(tetrahydrofuran-3-yl)ethyl]-3-oxo-2,3-dihydropyridazine-4-carboxamide]
AHR [1]
  IC50: > 2e-05 M
AHR [2]
  IC50: 4.34e-07 M

## O=C(NCC(O)C(F)(F)F)c1cc(-c2ccc(Cl)cc2)nn(-c2cc(Cl)cc(Cl)c2)c1=O (centres unmarked) [Example 311, 6-(4-Chlorophenyl)-2-(3,5-dichlorophenyl)-3-oxo-N-(3,3,3-trifluoro-2-hydroxypropyl)-2,3-dihydropyridazine-4-carboxamide]
AHR [1]
  IC50: > 2e-05 M
AHR [2]
  IC50: 6.6e-07 M

## O=C(NCCC1(O)CCCCC1)c1cc(-c2ccc(Cl)cc2)nn(-c2cccc(F)c2)c1=O [Example 320, 6-(4-chlorophenyl)-2-(3-fluorophenyl)-N-[2-(1-hydroxycyclohexyl)ethyl]-3-oxo-2,3-dihydropyridazine-4-carboxamide]
AHR [1]
  IC50: > 2e-05 M
AHR [2]
  IC50: 3.62e-07 M

## CC(C)(O)CCNC(=O)c1cc(-c2ccc(Cl)cc2)nn(-c2cccc(F)c2)c1=O [Example 321, 6-(4-chlorophenyl)-2-(3-fluorophenyl)-N-(3-hydroxy-3-methylbutyl)-3-oxo-2,3-dihydropyridazine-4-carboxamide]
AHR [1]
  IC50: > 2e-05 M
AHR [2]
  IC50: 2.64e-07 M

## O=C(NCC1(O)CCOCC1)c1cc(-c2ccc(Cl)cc2)nn(-c2cccc(F)c2)c1=O [Example 325, 6-(4-chlorophenyl)-2-(3-fluorophenyl)-N-[(4-hydroxytetrahydro-2H-pyran-4-yl)methyl]-3-oxo-2,3-dihydropyridazine-4-carboxamide]
AHR [1]
  IC50: > 2e-05 M
AHR [2]
  IC50: 9.65e-08 M

## O=C(NCC1(O)CCCC1)c1cc(-c2ccc(Cl)cc2)nn(-c2cccc(F)c2)c1=O [Example 326, 6-(4-chlorophenyl)-2-(3-fluorophenyl)-N-[(1-hydroxycyclopentyl)methyl]-3-oxo-2,3-dihydropyridazine-4-carboxamide]
AHR [1]
  IC50: > 2e-05 M
AHR [2]
  IC50: 6.47e-08 M

## CC(NC(=O)c1cc(-c2ccc(Cl)cc2)nn(-c2cccc(F)c2)c1=O)C(O)CO (centres unmarked) [Example 337, 6-(4-chlorophenyl)-N-(3,4-dihydroxybutan-2-yl)-2-(3-fluorophenyl)-3-oxo-2,3-dihydropyridazine-4-carboxamide]
AHR [1]
  IC50: > 2e-05 M
AHR [2]
  IC50: 4.58e-08 M

## N#Cc1cccc(-n2nc(-c3ccc(Cl)cc3)cc(C(=O)NCC(O)C(F)(F)F)c2=O)c1 (centres unmarked) [Example 362, 6-(4-chlorophenyl)-2-(3-cyanophenyl)-3-oxo-N-(3,3,3-trifluoro-2-hydroxypropyl)-2,3-dihydropyridazine-4-carboxamide]
AHR [1]
  IC50: > 2e-05 M
AHR [2]
  IC50: 2.31e-07 M

## Cc1cccc(-n2nc(-c3ccc(Cl)cc3)cc(C(=O)NCC(O)C(F)(F)F)c2=O)c1 (centres unmarked) [Example 366, 6-(4-chlorophenyl)-2-(3-methylphenyl)-3-oxo-N-(3,3,3-trifluoro-2-hydroxypropyl)-2,3-dihydropyridazine-4-carboxamide]
AHR [1]
  IC50: > 2e-05 M
AHR [2]
  IC50: 9.7e-07 M

## C[C@@H](CO)NC(=O)c1cc(-c2ccc(Cl)cc2)nn(-c2cccc(C(F)F)c2)c1=O [Example 370, 6-(4-chlorophenyl)-2-[3-(difluoromethyl)phenyl]-N-[(2S)-1-hydroxypropan-2-yl]-3-oxo-2,3-dihydropyridazine-4-carboxamide]
AHR [1]
  IC50: > 2e-05 M
AHR [2]
  IC50: 9.24e-07 M

## O=C(NC[C@H]1C[C@H](O)C1)c1cc(-c2ccc(Cl)cc2)nn(-c2cccc(F)c2)c1=O [Example 372, 6-(4-chlorophenyl)-2-(3-fluorophenyl)-N-[(trans-3-hydroxycyclobutyl)-methyl]-3-oxo-2,3-dihydropyridazine-4-carboxamide]
AHR [1]
  IC50: > 2e-05 M
AHR [2]
  IC50: 2.21e-07 M

## CN(C)c1ccc(-c2cc(C(=O)N[C@H](CO)C(F)(F)F)c(=O)n(-c3cccc(F)c3)n2)cc1Cl [Example 373, 6-[3-chloro-4-(dimethylamino)phenyl]-2-(3-fluorophenyl)-3-oxo-N-[(2R)-1,1,1-trifluoro-3-hydroxypropan-2-yl]-2,3-dihydropyridazine-4-carboxamide]
AHR [1]
  IC50: > 2e-05 M
AHR [2]
  IC50: 1.69e-08 M

## C[C@@H](CO)NC(=O)c1cc(-c2ccc(N(C)C)c(Cl)c2)nn(-c2cccc(F)c2)c1=O [Example 377, 6-[3-chloro-4-(dimethylamino)phenyl]-2-(3-fluorophenyl)-N-[(2S)-1-hydroxypropan-2-yl]-3-oxo-2,3-dihydropyridazine-4-carboxamide]
AHR [1]
  IC50: > 2e-05 M
AHR [2]
  IC50: 1.36e-07 M

## C[C@@H](NC(=O)c1cc(-c2ccc(OC(F)(F)F)cc2)nn(-c2cccc(F)c2)c1=O)C(C)(C)O [Example 381, 2-(3-fluorophenyl)-N-[(2R)-3-hydroxy-3-methylbutan-2-yl]-3-oxo-6-[4-(trifluoromethoxy)phenyl]-2,3-dihydropyridazine-4-carboxamide]
AHR [1]
  IC50: > 2e-05 M
AHR [2]
  IC50: 4.7e-08 M
